1 molecule from patent US10596216B2, “Use of a Withania extract for the treatment of amyloid-related diseases” (Ethnodyne, priority 2015, dated 2020) can be followed below.

The structures appear in SMILES notation.

The subject of this series is rat primary cortical cultures. The experiment in a line: Neuroprotective effect following exposure to glutamate (Example 12). In kind it is cell-based. Conditions: glutamate 40 μM, 20 min, primary cortical neuron culture. As for the experimental part: This study investigated the neuroprotective effect of the composition WEB-2 on rat primary cortical cultures following exposure to glutamate (40 μM, 20 min application), an in vitro AD model.
Pregnant Wistar females rat (JanvierLabs, France) at 15 days of gestation were killed by cervical dislocation. The foetuses were prepared as in example 11.
Once obtained, the cells were seeded at a density of 30,000 per well in 96-well plates precoated with poly-L-lysine (Batch: 3102256, Corning Biocoat) and were cultured at 37° C. in an air (95%)-CO2 (5%) incubator. The medium was changed every 2 days. The cortical neurons were intoxicated with glutamate solution.
On day 13 after culture, glutamate (Batch: 061M0030V, Sigma) was added into cell culture to a final concentration of 40 μM diluted in control medium for 20 min. After 20 min, the cells were washed-out and new fresh medium containing or not WEB-2 was added for 48 h additional time. […]
The immunolabeled cultures were automatically examined with ImageXpress equipped with a LED at ×20 magnification. For each condition (6 culture wells), 30 automatically fields per well (representing ˜80% of the total surface of the well) were analyzed. The total number of neurons and neurite length were automatically analyzed using MetaXpress software.

For `N[C@@H](CCC(=O)O)C(=O)O` [Glutamate, glutamate], the “neurite network loss induced” value is on record as “neurite network loss” and the neuronal death induced entry is on record as “significant neuronal death”.
